Laboratory results: publication PMC7181660, “A novel specific PERK activator reduces toxicity and extends survival in Huntington's disease models” (Scientific Reports, 2020)

Assays:
Assay in all cases: biochemical
Assay type in all cases: biochemical
panel of 391 kinases [1] = target: panel of 391 kinases (Homo sapiens, UniProt O75676); conditions: MSK2/RPS6KA4, MK-28 1 µM, ATP 1 µM
panel of 391 kinases [2] = target: panel of 391 kinases (Homo sapiens, UniProt O75716); conditions: STK16, MK-28 1 µM, ATP 1 µM
panel of 391 kinases [3] = target: T1, panel of 391 kinases (Homo sapiens, UniProt P10398); conditions: ARAF, MK-28 1 µM, ATP 1 µM
T1 sequence (P10398 1-606): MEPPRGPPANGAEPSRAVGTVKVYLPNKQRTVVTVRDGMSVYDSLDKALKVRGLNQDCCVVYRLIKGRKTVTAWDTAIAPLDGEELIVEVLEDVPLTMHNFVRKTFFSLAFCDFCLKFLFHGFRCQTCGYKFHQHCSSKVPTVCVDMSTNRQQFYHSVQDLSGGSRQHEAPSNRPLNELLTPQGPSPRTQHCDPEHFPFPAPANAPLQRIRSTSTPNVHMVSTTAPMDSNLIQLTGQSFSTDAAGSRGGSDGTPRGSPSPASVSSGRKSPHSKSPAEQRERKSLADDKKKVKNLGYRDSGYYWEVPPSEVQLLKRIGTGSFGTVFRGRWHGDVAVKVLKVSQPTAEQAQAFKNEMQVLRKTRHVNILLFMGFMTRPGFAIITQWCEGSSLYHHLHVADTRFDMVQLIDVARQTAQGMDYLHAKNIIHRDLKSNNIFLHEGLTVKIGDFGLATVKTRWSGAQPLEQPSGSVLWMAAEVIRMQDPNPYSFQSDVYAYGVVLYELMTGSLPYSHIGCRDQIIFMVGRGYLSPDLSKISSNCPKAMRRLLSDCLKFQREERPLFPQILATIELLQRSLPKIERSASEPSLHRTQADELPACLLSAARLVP

panel of 391 kinases [4] = target: panel of 391 kinases (Homo sapiens, UniProt P32298); conditions: GRK4, MK-28 1 µM, ATP 1 µM
panel of 391 kinases [5] = target: panel of 391 kinases (Homo sapiens, UniProt P49760); conditions: CLK2, MK-28 1 µM, ATP 1 µM
panel of 391 kinases [6] = target: panel of 391 kinases (Homo sapiens, UniProt P51955); conditions: NEK2, MK-28 1 µM, ATP 1 µM
panel of 391 kinases [7] = target: panel of 391 kinases (Homo sapiens, UniProt Q02156); conditions: PKCepsilon, MK-28 1 µM, ATP 1 µM
panel of 391 kinases [8] = target: panel of 391 kinases (Homo sapiens, UniProt Q06187); conditions: BTK, MK-28 1 µM, ATP 1 µM
panel of 391 kinases [9] = target: panel of 391 kinases (Homo sapiens, UniProt Q08345); conditions: DDR1, MK-28 1 µM, ATP 1 µM
panel of 391 kinases [10] = target: panel of 391 kinases (Homo sapiens, UniProt Q13976); conditions: PKG1a, MK-28 1 µM, ATP 1 µM
panel of 391 kinases [11] = target: panel of 391 kinases (Homo sapiens, UniProt Q15349); conditions: RSK3, MK-28 1 µM, ATP 1 µM
panel of 391 kinases [12] = target: panel of 391 kinases (Homo sapiens, UniProt Q52WX2); conditions: SBK1, MK-28 1 µM, ATP 1 µM
panel of 391 kinases [13] = target: panel of 391 kinases (Homo sapiens, UniProt Q6DT37); conditions: DMPK2, MK-28 1 µM, ATP 1 µM
panel of 391 kinases [14] = target: panel of 391 kinases (Homo sapiens, UniProt Q86Y07); conditions: VRK2, MK-28 1 µM, ATP 1 µM
panel of 391 kinases [15] = target: panel of 391 kinases (Homo sapiens, UniProt Q8IU85); conditions: CAMK1d, MK-28 1 µM, ATP 1 µM
panel of 391 kinases [16] = target: panel of 391 kinases (Homo sapiens, UniProt Q96PY6); conditions: NEK1, MK-28 1 µM, ATP 1 µM
panel of 391 kinases [17] = target: panel of 391 kinases (Homo sapiens, UniProt Q9BYT3); conditions: STK33, MK-28 1 µM, ATP 1 µM
panel of 391 kinases [18] = target: panel of 391 kinases (Homo sapiens, UniProt Q9H3Y6); conditions: SRMS, MK-28 1 µM, ATP 1 µM
panel of 391 kinases [19] = target: panel of 391 kinases (Homo sapiens, UniProt Q9HAZ1); conditions: CLK4, MK-28 1 µM, ATP 1 µM
panel of 391 kinases [20] = target: panel of 391 kinases (Homo sapiens, UniProt Q9HBH9); conditions: MNK2, MK-28 1 µM, ATP 1 µM
panel of 391 kinases [21] = target: panel of 391 kinases (Homo sapiens, UniProt Q9NRM7); conditions: LATS2, MK-28 1 µM, ATP 1 µM
panel of 391 kinases [22] = target: panel of 391 kinases (Homo sapiens, UniProt Q9UEE5); conditions: DRAK1/STK17A, MK-28 1 µM, ATP 1 µM
[23] = read-out: % Enzyme Activity (relative to DMSO controls)

CN(/N=C\c1ccc(O)c(O)c1)c1nc(-c2ccccc2)cc(-c2ccccc2)n1 [MK-28] was tested, and the “% Enzyme Activity (relative to DMSO controls)” value (panel of 391 kinases [1]) was 94.82%, the remaining activity at 1 µM (panel of 391 kinases [1]; [23]) was 96.8% and the “% Enzyme Activity (relative to DMSO controls)” value (panel of 391 kinases [2]) was 108.93%. For the same compound, the remaining activity at 1 µM (panel of 391 kinases [2]; [23]) was 109%, the “% Enzyme Activity (relative to DMSO controls)” value (panel of 391 kinases [3]) was 93.30% and the remaining activity at 1 µM (panel of 391 kinases [3]; [23]) was 96.2%. For the same compound, the “% Enzyme Activity (relative to DMSO controls)” value (panel of 391 kinases [4]) was 97.72%, the remaining activity at 1 µM (panel of 391 kinases [4]; [23]) was 99.2% and the “% Enzyme Activity (relative to DMSO controls)” value (panel of 391 kinases [5]) was 103.52%. The remaining activity at 1 µM (panel of 391 kinases [5]; [23]) was 108%, the “% Enzyme Activity (relative to DMSO controls)” value (panel of 391 kinases [6]) was 98.55% and the remaining activity at 1 µM (panel of 391 kinases [6]; [23]) was 99.2%. For the same compound, the “% Enzyme Activity (relative to DMSO controls)” value (panel of 391 kinases [7]) was 100.42%, the remaining activity at 1 µM (panel of 391 kinases [7]; [23]) was 102% and the “% Enzyme Activity (relative to DMSO controls)” value (panel of 391 kinases [8]) was 85.19%. For the same compound, the remaining activity at 1 µM (panel of 391 kinases [8]; [23]) was 85.4%, the “% Enzyme Activity (relative to DMSO controls)” value (panel of 391 kinases [9]) was 100.73% and the remaining activity at 1 µM (panel of 391 kinases [9]; [23]) was 103%. For the same compound, the “% Enzyme Activity (relative to DMSO controls)” value (panel of 391 kinases [10]) was 86.31%, the remaining activity at 1 µM (panel of 391 kinases [10]; [23]) was 89% and the “% Enzyme Activity (relative to DMSO controls)” value (panel of 391 kinases [11]) was 100.80%. For the same compound, the remaining activity at 1 µM (panel of 391 kinases [11]; [23]) was 103%, the “% Enzyme Activity (relative to DMSO controls)” value (panel of 391 kinases [12]) was 97.75% and the remaining activity at 1 µM (panel of 391 kinases [12]; [23]) was 97.8%. For the same compound, the “% Enzyme Activity (relative to DMSO controls)” value (panel of 391 kinases [13]) was 101.16%, the remaining activity at 1 µM (panel of 391 kinases [13]; [23]) was 106% and the “% Enzyme Activity (relative to DMSO controls)” value (panel of 391 kinases [14]) was 96.44%. For the same compound, the remaining activity at 1 µM (panel of 391 kinases [14]; [23]) was 97%, the “% Enzyme Activity (relative to DMSO controls)” value (panel of 391 kinases [15]) was 86.95% and the remaining activity at 1 µM (panel of 391 kinases [15]; [23]) was 87.6%. For the same compound, the “% Enzyme Activity (relative to DMSO controls)” value (panel of 391 kinases [16]) was 92.29%, the remaining activity at 1 µM (panel of 391 kinases [16]; [23]) was 94.7% and the “% Enzyme Activity (relative to DMSO controls)” value (panel of 391 kinases [17]) was 91.70%. For the same compound, the remaining activity at 1 µM (panel of 391 kinases [17]; [23]) was 95.4%, the “% Enzyme Activity (relative to DMSO controls)” value (panel of 391 kinases [18]) was 102.96% and the remaining activity at 1 µM (panel of 391 kinases [18]; [23]) was 104%. The “% Enzyme Activity (relative to DMSO controls)” value (panel of 391 kinases [19]) was 105.55%, the remaining activity at 1 µM (panel of 391 kinases [19]; [23]) was 109% and the “% Enzyme Activity (relative to DMSO controls)” value (panel of 391 kinases [20]) was 105.57%. For the same compound, the remaining activity at 1 µM (panel of 391 kinases [20]; [23]) was 114%, the “% Enzyme Activity (relative to DMSO controls)” value (panel of 391 kinases [21]) was 84.83% and the remaining activity at 1 µM (panel of 391 kinases [21]; [23]) was 88.2%. The “% Enzyme Activity (relative to DMSO controls)” value (panel of 391 kinases [22]) was 99.69% and the remaining activity at 1 µM (panel of 391 kinases [22]; [23]) was 102%.
